US8703812B2, “Protein synthesis required for long-term memory is induced by PKC activation on days preceding associative learning” (Blanchette Rockefeller Neurosciences Institute, priority 2005, dated 2014)
Entries after “also recorded” stand apart in the source; their conditions may differ.

How the values were obtained:
[1] = tested on: Rat hippocampal H19-7/IGF-IR cells; assay: Protein synthesis by [35S]Methionine incorporation; assay type: cell-based; details: single 30-minute exposure to 0.28 nM bryostatin
Experimental: FIG. 17 depicts the effects of bryostatin on protein synthesis. Rat IGF-IR cells were incubated for 30 minutes with 0.28 nM bryostatin for incubation times ranging from 1 to 79 hours. [^35S]Methionine (9.1 μCi) was then added to the medium followed by analysis of radiolabel.
Rat hippocampal H19-7/IGF-IR cells (ATCC) were plated onto poly-L-lysine coated plates and grown at 35° in DMEM/10% FCS for several days until approx. 50% coverage was obtained. The cells were then induced to differentiate into a neuronal phenotype by replacing the medium with 5 ml N2 medium containing 10 ng/ml basic fibroblast growth factor and grown in T-25 flasks at 39° C. (26). Various concentrations of bryostatin (0.01-1.0 nM) were then added in 10 μl aqueous solution. After a specified interval, the medium was removed and the cells were washed with PBS, removed by gentle scraping, and collected by centrifugation at 1000 rpm for 5 min.
In fact, we found here that a single 30-minute exposure to 0.28 nM bryostatin increased overall protein synthesis (FIG. 17), measured by incorporation of ^35-S Methionine in the last ½ hour before collecting the neurons, by 20% within 24 h, increasing to 60% by 79 hours after the bryostatin exposure.

[2] = cited from earlier work
sAPP secretion [3] = details: human fibroblasts; cited from earlier work
Hermissenda Crassicornis = assay: Pavlovian conditioning of Hermissenda (retention of conditioned response); assay type: in vivo; details: for concentration that inhibited acquisition and behavioral retention: all training conditions tested
Experimental: Bryostatin exposure—Specimens of Hermissenda Crassicornis were maintained in artificial sea water (ASW) at 15° for three days in perforated 50-ml conical centrifuge tubes before starting experiments. Bryostatin, purified from the marine bryozoan Bugula neritina, was dissolved in EtOH and diluted to its final concentration in ASW. […] For selected experiments lactacysteine (10 μM) or anisomycin was added to the ASW.
Bryostatin effects on Hermissenda behavior and biochemistry were produced by adding the drug to the bathing medium within an 8 cm long, 1 cm diameter test tube housing each individual animal.
Pavlovian conditioning of Hermissenda involves repeated pairings of a neutral stimulus, light, with an unconditioned stimulus, orbital shaking. (See, Lederhendler et al. (24) and Epstein et al. (6)). A rotation/shaking stimulus excites the statocyst hair cells and thereby elicits an unconditioned response: a brisk contraction of the muscular undersurface called a foot, accompanied by adherence or “clinging” to the surface that supports the foot. Before conditioning, light elicits a weakly positive phototaxis accompanied by lengthening of the foot. After sufficient light-rotation pairings, light no longer elicits phototaxis, but instead elicits a new response (24): the “clinging” and foot shortening previously elicited only by the unconditional stimulus (FIG. 1). Thus, the meaning of the unconditioned stimulus, rotation or orbital shaking, has been transferred to the conditioned stimulus and is manifested by a light-elicited foot contraction—a negative change of foot length. This conditioned response to light can last for weeks, is not produced by randomized light and rotation, is stimulus-specific, and shares the other defining characteristics of mammalian Pavlovian Conditioning.
Pavlovian conditioning of Hermissenda has well-defined training parameters that produce progressively longer-lasting retention of the learned conditioned response. Two training events (2 TE) of paired light and orbital shaking (see “Methods”), for example, induce a learned conditioned response (light-elicited foot contraction or shortening) that persists without drug treatment for approximately 7 minutes. Four to six training events (4-6 TE) induce a conditioned response that persists up to several hours, but disappears approximately by 1 day after training. Nine TE produces long-term associative memory lasting many days and often up to two weeks.

[4] = in vivo; cited from earlier work
PKC = details: cited from earlier work
sAPP secretion [5] = assay: sAPP secretion / alpha-secretase APP processing; assay type: cell-based; details: 0.1 nM bryostatin-1

For `CCC/C=C/C=C/C(=O)O[C@H]1/C(=C/C(=O)OC)C[C@H]2C[C@H]([C@@H](C)O)OC(=O)C[C@H](O)C[C@@H]3C[C@H](OC(C)=O)C(C)(C)[C@](O)(C[C@@H]4C/C(=C/C(=O)OC)C[C@H](/C=C/C(C)(C)[C@]1(O)O2)O4)O3` [bryostatin, bryostatin-1], which “increase of overall protein synthesis” value ([1]; by 79 hours) is on record?
The value was 60%.

What about the “increase of overall protein synthesis” value ([1]; within 24 h) of the same molecule?
The value was 20%.

And the tolerability ([2]; 20 μg/m^2 once per week for 3 weeks)?
Its tolerability is “well tolerated and were not associated with myalgia or other side effects”.

And the maximum-tolerated dose ([2]; 1 hour i.v. infusion once every 2 weeks for 6 weeks)?
Its maximum-tolerated dose is 50 μg/m^2.

And the maximum tolerated dose ([2]; once per week for 8 weeks)?
The maximum tolerated dose was 25 μg/m^2.

And the “myalgia reported, of all treated patients” value ([2]; phase II clinical trials)?
Its value is 10 to 87%.

What about the “alpha-secretase cleavage of APP to sAPP” value (sAPP secretion [3]) of the same molecule?
The value was “activate the alpha-secretase”.

What about the retention (Hermissenda Crassicornis; 2-TEs with two bryostatin exposures) of the same molecule?
Its retention is “more than one week”.

What about the “retention of behavioral conditioning tested after 4 h” value (Hermissenda Crassicornis; 2-paired TEs, bryostatin 0.25 ng/ml from 10-min dark adaptation and 4 h thereafter) of the same molecule?
The value was “demonstrated retention of the behavioral conditioning”.

What about the memory retention (Hermissenda Crassicornis; 2 TE plus bryostatin, 4 hours during and after training) of the same molecule?
The memory retention was “lasting hours; also recorded: several hours”.

What about the memory retention (Hermissenda Crassicornis; 4 TEs plus bryostatin) of the same molecule?
Its memory retention is greater than 24 h.

What about the memory duration (Hermissenda Crassicornis; 6 TE with bryostatin (only hours without)) of the same molecule?
The memory duration was “many days”.

And the memory retention (Hermissenda Crassicornis; 4 hour bryostatin on the day preceding training and on the day of 2 TE)?
Its memory retention is “more than one day”.

What about the retention (Hermissenda Crassicornis; 20 h pre-exposure to bryostatin 0.25 ng/ml, 4-paired TE) of the same molecule?
The retention was “persisted”.

What about the retention (Hermissenda Crassicornis; 20 hr bryostatin 0.25 ng/ml exposure, 2-paired TE) of the same molecule?
The retention was no more than 48 h.

And the “low doses that markedly enhanced memory” value (Hermissenda Crassicornis; after 2, 4, or 6 training trials)?
The value was 0.1 to 0.25 ng/mL.

And the “concentration that inhibited acquisition and behavioral retention” value (Hermissenda Crassicornis)?
Its value is “greater than 1.0 ng/ml”.

And the “concentration that inhibited acquisition and behavioral retention” value (Hermissenda Crassicornis; listed as Bryostatin)?
Its value is no less than 1.0 ng/mL.

And the “conditioned response (foot contraction) tested at 4 h” value (Hermissenda Crassicornis; bryostatin 0.25 ng/ml before 6-TE conditioning and 4 hours thereafter)?
Its value is “produced a positive CR”.

What about the “effect on retention performance” value (Hermissenda Crassicornis; bryostatin <0.50 ng/ml, 9-paired TEs) of the same molecule?
Its value is “no demonstrable effects on retention performance”.

What about the “memory retention versus 4 hour exposures” value (Hermissenda Crassicornis; bryostatin exposure for 8 to 20 hours followed by 2 TE) of the same molecule?
The value was “not sufficient”.

What about the “behavioral retention lost after” value (Hermissenda Crassicornis; bryostatin only 4 h, 2-paired TEs 24 hrs later) of the same molecule?
Its value is no more than 24 h.

What about the conditioned response (Hermissenda Crassicornis; randomized presentations of light and rotation, with bryostatin) of the same molecule?
Its conditioned response is “produced no conditioned response”.

And the “long-term retention (tested with CS alone at 4 h, then 24-h intervals)” value (Hermissenda Crassicornis; sub-optimal 4- and 6-paired TEs, bryostatin 0.25 ng/ml from dark adaptation and for 4 hours)?
Its value is “all demonstrated long-term retention”.

And the “concentrations that augment acquisition and memory retention” value (Hermissenda Crassicornis; sub-optimal (4 TE) training)?
The value was less than 0.50 ng/mL.

What about the “long-term retention (LTR) post-training” value (Hermissenda Crassicornis; three successive days of 4-h bryostatin 0.25 ng/ml, one day later 2-TEs) of the same molecule?
The value was no less than 96 h.

And the long-term retention (Hermissenda Crassicornis; two successive days of 4-h bryostatin 0.25 ng/ml, 2-paired TEs)?
Its long-term retention is “at least 6 days”.

What about the “rat spatial maze learning” value [4] of the same molecule?
Its value is “enhanced”.

And the “concentrations that activate PKC” value (PKC)?
The value was “sub-nanomolar”.

What about the sAPP secretion (sAPP secretion [5]) of the same molecule?
The sAPP secretion was “dramatic increase of sAPP secretion”.
